Data taken from patent publication US20220274961A1, “SUBSTITUTED FUSED BI- OR TRI- HETEROCYCLIC COMPOUNDS AS EHMT2 INHIBITORS” (priority 2016, published 2022).
Read-outs that look alike come from different tables or passages of the source.

Assays:
EHMT1 = molecular target: T1, EHMT1 (Homo sapiens, UniProt Q9H9B1); experiment: EHMT1 PEP; assay type: biochemical
T1 sequence (Q9H9B1 1-1298): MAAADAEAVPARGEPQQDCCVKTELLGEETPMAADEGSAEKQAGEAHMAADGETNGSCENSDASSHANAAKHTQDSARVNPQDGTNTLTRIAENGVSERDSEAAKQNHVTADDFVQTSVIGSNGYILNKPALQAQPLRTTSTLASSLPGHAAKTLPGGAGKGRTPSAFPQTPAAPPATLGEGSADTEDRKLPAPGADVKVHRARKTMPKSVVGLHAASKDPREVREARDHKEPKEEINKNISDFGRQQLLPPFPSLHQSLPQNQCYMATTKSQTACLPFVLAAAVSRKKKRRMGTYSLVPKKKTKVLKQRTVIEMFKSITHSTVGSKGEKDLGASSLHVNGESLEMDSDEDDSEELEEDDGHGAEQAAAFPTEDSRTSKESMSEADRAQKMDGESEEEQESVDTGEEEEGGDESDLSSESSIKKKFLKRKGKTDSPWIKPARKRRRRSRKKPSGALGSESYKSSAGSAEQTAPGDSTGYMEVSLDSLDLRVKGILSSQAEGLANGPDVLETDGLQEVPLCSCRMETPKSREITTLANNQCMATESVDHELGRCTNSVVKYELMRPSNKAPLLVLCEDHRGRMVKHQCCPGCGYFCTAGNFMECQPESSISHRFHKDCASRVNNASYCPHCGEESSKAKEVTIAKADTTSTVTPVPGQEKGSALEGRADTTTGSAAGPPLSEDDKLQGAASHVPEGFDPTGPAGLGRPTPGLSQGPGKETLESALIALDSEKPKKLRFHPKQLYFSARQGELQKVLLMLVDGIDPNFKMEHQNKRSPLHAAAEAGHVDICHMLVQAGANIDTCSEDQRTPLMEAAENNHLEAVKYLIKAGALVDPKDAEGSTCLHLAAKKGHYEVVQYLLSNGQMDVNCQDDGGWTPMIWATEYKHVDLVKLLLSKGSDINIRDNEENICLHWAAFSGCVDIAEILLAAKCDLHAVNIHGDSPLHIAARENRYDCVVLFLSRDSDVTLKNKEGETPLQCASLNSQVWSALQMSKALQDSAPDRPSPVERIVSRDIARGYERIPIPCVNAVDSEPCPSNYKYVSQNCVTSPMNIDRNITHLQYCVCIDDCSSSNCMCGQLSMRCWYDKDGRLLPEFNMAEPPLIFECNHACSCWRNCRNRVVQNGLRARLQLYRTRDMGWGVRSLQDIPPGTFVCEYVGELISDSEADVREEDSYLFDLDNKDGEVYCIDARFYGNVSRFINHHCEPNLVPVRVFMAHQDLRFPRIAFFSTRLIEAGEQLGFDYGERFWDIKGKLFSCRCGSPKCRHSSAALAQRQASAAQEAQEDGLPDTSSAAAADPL

human EHMT2 913-1193 = molecular target: T2, human EHMT2 913-1193 (Homo sapiens, UniProt Q96KQ7); experiment: biochemical
T2 construct: recombinant purified human EHMT2 913-1193, Viva; purchased Viva
T2 sequence (Q96KQ7 913-1193): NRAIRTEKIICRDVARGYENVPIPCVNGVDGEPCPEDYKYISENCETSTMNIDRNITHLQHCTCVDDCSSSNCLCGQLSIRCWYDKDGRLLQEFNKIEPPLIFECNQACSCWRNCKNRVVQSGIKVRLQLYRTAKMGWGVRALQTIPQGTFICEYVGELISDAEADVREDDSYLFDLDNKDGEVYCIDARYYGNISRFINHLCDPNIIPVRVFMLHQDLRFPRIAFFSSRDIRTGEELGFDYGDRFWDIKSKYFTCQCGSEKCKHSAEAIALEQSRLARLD
From the text: Biotinylated histone peptides were synthesized by Biopeptide and HPLC-purified to >95% purity. Streptavidin Flashplates and seals were purchased from PerkinElmer and 384 Well V-bottom Polypropylene Plates were from Greiner. ^3H-labeled S-adenosylmethionine (^3H-SAM) was obtained from American Radiolabeled Chemicals with a specific activity of 80 Ci/mmol. Unlabeled SAM and S-adenosylhomocysteine (SAH) were obtained from American Radiolabeled Chemicals and Sigma-Aldrich respectively. […] 384-well Flashplates and 96-well filter binding plates were read on a TopCount microplate reader (PerkinElmer). Compound serial dilutions were performed on a Freedom EVO (Tecan) and spotted into assay plates using a Thermo Scientific Matrix PlateMate (Thermo Scientific). Reagent cocktails were added by Multidrop Combi (Thermo Scientific).
General Procedure for EHMT2 Enzyme Assay on Histone Peptide Substrate. 10-point curves of test compounds were made on a Freedom EVO (Tecan) using serial 3-fold dilutions in DMSO, beginning at 2.5 mM (final top concentration of compound was 50 μM and the DMSO was 2%). A 1 μL aliquot of the inhibitor dilution series was spotted in a polypropylene 384-well V-bottom plate (Greiner) using a Thermo Scientific Matrix PlateMate (Thermo Scientific). […] Reactions were incubated for 60 minutes at room temperature and quenched with 10 μL per well of 400 μM unlabeled SAM, then transferred to a 384-well streptavidin Flashplate (PerkinElmer) and washed in a Biotek ELx-405 well washer with 0.1% Tween after 60 minutes. 384-well Flashplates were read on a TopCount microplate reader (PerkinElmer).

[1] = recombinant human EHMT2 913-1193, histone H3 1-15 peptide, 3H-SAM, balanced conditions, read-out: EHMT2 PEP (IC50 μM)

IC50 (EHMT1) [µM]	IC50 (human EHMT2 913-1193; [1]) [µM]	IC50 (human EHMT2 913-1193) [µM]	Structure (SMILES)
> 10	1 to 10		COc1cc2c(cc1OCCCN1CCCC1)ncn2C(C)C [Compound 67]
1 to 10	1 to 10		CC(C)Oc1cc2c(cc1OCCCN1CCCC1)N=C(N)C21CCC1 [Compound 68]
1 to 10	1 to 10		COc1cc2c(cc1OCCCN)N=C(N)C21CCC1 [Compound 69]
< 0.1	< 0.1		CNC1=Nc2cc(C#CCN3CC4CC4C3)c(OC)cc2C12CCC2 (centres unmarked) [Compound 87]
< 0.1	< 0.1		CNC1=Nc2cc(C#CC(C)N3CC4CC4C3)c(OC)cc2C12CCC2 (centres unmarked) [Compound 89]
< 0.1	< 0.1		CNC1=Nc2cc(C#C[C@H](C)N3CCCCC3)c(OC)cc2C12CCC2 [Compound 93]
0.1 to 1	0.1 to 1		CNC1=Nc2cc(C#C[C@@H](C)N3CCCCC3)c(OC)cc2C12CCC2 [Compound 94]
< 0.1	0.1 to 1		CNC1=Nc2cc(C#CCN3CCC(O)C3)c(OC)cc2C12CCC2 (centres unmarked) [Compound 95]
1 to 10	> 10		NC1=Nc2cc(OCCCN3CCCC3)c(-c3ccccc3)cc2C12CCC2 [Compound 135]
1 to 10	> 10		NC1=Nc2cc(OCCCN3CCCC3)c(-c3ccncc3)cc2C12CCC2 [Compound 136]
> 10	> 10		NC1=Nc2cc(OCCCN3CCCC3)c(-c3cccnc3)cc2C12CCC2 [Compound 137]

Further lines, the molecule ahead of its results:

Structure (SMILES)	IC50 (EHMT1) [µM]	IC50 (human EHMT2 913-1193; [1]) [µM]	IC50 (human EHMT2 913-1193) [µM]
COc1cc2c(cc1OCCCN1CCC1)N=C(N)C21CCC1 [Compound 43]	< 0.1	< 0.1	
COc1cc2c(cc1OCCCN(C)C)N=C(N)C2(C)C [Compound 46]	0.1 to 1	0.1 to 1	
COc1cc2c(cc1OCCCN)N=C(N)C2(C)C [Compound 47]	1 to 10	1 to 10	
CNCCCOc1cc2c(cc1OC)C(C)(C)C(N)=N2 [Compound 48]	0.1 to 1	0.1 to 1	
COc1cc2c(cc1OCCCN1CC[C@@H](O)C1)N=C(N)C21CCC1 [Compound 49]	< 0.1	< 0.1	
COc1cc2c(cc1OCCCN1CC[C@H](O)C1)N=C(N)C21CCC1 [Compound 50]	< 0.1	< 0.1	
COc1cc2nc[nH]c2cc1OCCCN1CCCC1 [Compound 51]	1 to 10	1 to 10	
COc1cc2c(cc1OCCCN1CCCCC1)N=C(N)C21CCC1 [Compound 52]	0.1 to 1	< 0.1	
COc1cc2c(cc1OCCCN(C)C)N=C(N)C21CCC1 [Compound 53]	< 0.1	< 0.1	
COc1cc2c(cc1OCCCN1CCOCC1)N=C(N)C21CCC1 [Compound 54]	0.1 to 1	0.1 to 1	
COc1cc2c(cc1OCCCN1CCCC1)N=C(N)C21CCCCC1 [Compound 55]	< 0.1	< 0.1	
COc1cc2c(cc1OCCCN1CCCC1)N=C(N)C21CCCC1 [Compound 56]	< 0.1		< 0.1
CNCCCOc1cc2c(cc1OC)C1(CCC1)C(N)=N2 [Compound 57]	1 to 10	1 to 10	
NC1=Nc2cc(OCCCN3CCCC3)c(OCc3ccccc3)cc2C12CCC2 [Compound 58]	1 to 10	1 to 10	
CCOc1cc2c(cc1OCCCN1CCCC1)N=C(N)C21CCC1 [Compound 59]	< 0.1	< 0.1	
NC1=Nc2cc(OCCCN3CCCC3)c(OCC3CCOCC3)cc2C12CCC2 [Compound 60]	1 to 10	1 to 10	
NC1=Nc2cc(OCCCN3CCCC3)c(OCC3CCCCC3)cc2C12CCC2 [Compound 61]	> 10	> 10	
COc1cc2c(cc1OCC(O)CN1CCCC1)N=C(N)C21CCC1 (centres unmarked) [Compound 62]	< 0.1	< 0.1	
COc1cc2c(cc1OCC(C)CN1CCCC1)N=C(N)C21CCC1 (centres unmarked) [Compound 65]	0.1 to 1	0.1 to 1	
COc1cc2c(cc1OCCCN1CCCC1)C1(CCC1)C(N)=N2 [Compound 66]	1 to 10	1 to 10	
